Results: patent publication US6897230B2, “Bicyclo[3/1/0] hexane containing oxazolidinone antibiotics and derivatives thereof” (Kyorin Pharmaceutical Co., Ltd., priority 2001, dated 2005)
≈ marks a conversion by molar mass, not a printed value. Counter-ions that a name gives are not always drawn.

Key:
[1] = test system: Staphylococcus aureus MR (methicillin resistant); test: MIC, agar dilution method; assay type: cell-based; conditions: Mueller-Hinton agar, 35 C, 24 hours
Method: (§1) The following in vitro results were obtained based on an agar dilution method except for C. pneumoniae. The activity is presented as the minimum inhibitory concentration (MIC).
(§2) S. aureus and M. catarrhalis were tested on Mueller-Hinton agar, using an approximate inoculum of 1×10^4 cfu/spot an incubation temperature of 35 C. for 24 hours. The MIC was defined as the lowest concentration at which no visible bacterial growth was observed.

[2] = test system: Staphylococcus aureus CR (chloramphenicol resistant); test: MIC, agar dilution method; assay type: cell-based; conditions: Mueller-Hinton agar, 35 C, 24 hours
Method: as §1, §2

[3] = test system: Staphylococcus aureus Smith; test: MIC, agar dilution method; assay type: cell-based; conditions: Mueller-Hinton agar, 35 C, 24 hours
Method: as §1, §2

[4] = test system: Streptococcus pneumoniae IID553; test: MIC, agar dilution method; assay type: cell-based; conditions: Mueller-Hinton agar with 5% defibrinated horse blood, 5% CO2, 24 hours
Method: as §1
(§3) Streptococci and enterococci were tested on Mueller-Hinton agar supplemented with 5% defibrinated horse blood, using an approximate inoculum of 1×10^4 cfu/spot an incubation temperature of 35° C. in an atmosphere of 5% CO2 for 24 hours. The MIC was defined as the lowest concentration at which no visible bacterial growth was observed.

[5] = test system: Streptococcus pyogenes IID692; test: MIC, agar dilution method; assay type: cell-based; conditions: Mueller-Hinton agar with 5% defibrinated horse blood, 5% CO2, 24 hours
Method: as §1, §3

[6] = test system: Enterococcus faecium VRQR (vancomycin resistant, quinolone resistant); test: MIC, agar dilution method; assay type: cell-based; conditions: Mueller-Hinton agar with 5% defibrinated horse blood, 5% CO2, 24 hours
Method: as §1, §3

[7] = test system: Streptococcus pneumoniae PRQR (penicillin resistant, quinolone resistant); test: MIC, agar dilution method; assay type: cell-based; conditions: Mueller-Hinton agar with 5% defibrinated horse blood, 5% CO2, 24 hours
Method: as §1, §3

[8] = test system: Chlamydia pneumoniae ATCC VR-1360; test: MIC, inclusion formation in infected HeLa 229 cells; assay type: cell-based; conditions: ATCCVR1360, 72 hours, lowest concentration with no inclusion
Method: as §1
C. pneumoniae was tested using minimum essential medium supplemented with 10% heat-inactivated fetal bovine serum, 2 mM L-glutamine, […] cycloheximide and non essential amino acid. HeLa 229 cells were inoculated with 10^4 inclusion-forming units of C. pneumoniae strain per mL. Infected cells were incubated with test compounds in complete medium at 35C in an atmosphere of 5% CO2 for 72 hours. […] The MIC was defined as the lowest concentration at which no inclusion was observed.

[9] = test system: Moraxella catarrhalis ATCC25238; test: MIC, agar dilution method; assay type: cell-based; conditions: Mueller-Hinton agar, 35 C, 24 hours
Method: as §1, §2

melting point [°C]	MIC [1] [µg/mL]	MIC [2] [µg/mL]	MIC [3] [µg/mL]	MIC [4] [µg/mL]	MIC [5] [µg/mL]	MIC [6] [µg/mL]	MIC [7] [µg/mL]	MIC [8] [µg/mL]	MIC [9] [µg/mL]	SMILES
215 to 220	–	–	–	–	–	–	–	–	–	CC(=O)NC[C@H]1CN(c2ccc(C3=C[C@@H]4[C@@H](N)[C@@H]4C3)c(F)c2)C(=O)O1 (as salt: hydrochloride) [Example 50, N-[5(S)-3-[4-[(1α,5α,6α)-6-Aminobicyclo[3.1.0]hex-2-en-3-yl]-3-fluorophenyl]-2-oxooxazolidin-5-ylmethyl]acetamide Hydrochloride]
–	1 (≈ 2.87 µM)	4 (≈ 11.5 µM)	0.5 (≈ 1.44 µM)	1 (≈ 2.87 µM)	0.5 (≈ 1.44 µM)	2 (≈ 5.74 µM)	1 (≈ 2.87 µM)	0.5 (≈ 1.44 µM)	–	CC(=O)NC[C@H]1CN(c2ccc(N3C[C@@H]4[C@@H](N)[C@@H]4C3)c(F)c2)C(=O)O1 [Example 8, N-[5(S)-3-[4-[(1α,5α,6α)-6-Amino-3-azabicyclo[3.1.0]hexan-3-yl]-3-fluorophenyl]-2-oxooxazolidin-5-ylmethyl]acetamide]
–	0.06 (≈ 0.159 µM)	0.5 (≈ 1.33 µM)	0.06 (≈ 0.159 µM)	0.5 (≈ 1.33 µM)	0.5 (≈ 1.33 µM)	0.5 (≈ 1.33 µM)	0.5 (≈ 1.33 µM)	–	4 (≈ 10.6 µM)	CC(=O)NC[C@H]1CN(c2ccc(N3C[C@@H]4[C@@H](/C=N/O)[C@@H]4C3)c(F)c2)C(=O)O1 [Example 41, (E)-N-[5(S)-3-[3-Fluoro-4-[(1α,5α,6α)-6-[(hydroxyimino)methyl]-3-azabicyclo[3.1.0]hexan-3-yl]phenyl]-2-oxooxazolidin-5-ylmethyl]acetamide]

Second part, the compound before the results:

SMILES	melting point [°C]	MIC [1] [µg/mL]	MIC [2] [µg/mL]	MIC [3] [µg/mL]	MIC [4] [µg/mL]	MIC [5] [µg/mL]	MIC [6] [µg/mL]	MIC [7] [µg/mL]	MIC [8] [µg/mL]	MIC [9] [µg/mL]
CC(=O)NC[C@H]1CN(c2ccc(N3C[C@@H]4[C@@H](C=O)[C@@H]4C3)c(F)c2)C(=O)O1 [Example 22, N-[5(S)-3-[3-Fluoro-4-[(1α,5α,6α)-6-formyl-3-azabicyclo[3.1.0]hexan-3-yl]phenyl]-2-oxooxazolidin-5-ylmethyl]acetamide]	–	0.016 (≈ 0.0443 µM)	0.5 (≈ 1.38 µM)	0.06 (≈ 0.166 µM)	0.5 (≈ 1.38 µM)	0.5 (≈ 1.38 µM)	0.5 (≈ 1.38 µM)	0.5 (≈ 1.38 µM)	–	2 (≈ 5.53 µM)
CC(=O)NC[C@H]1CN(c2ccc(N3C[C@@H]4[C@@H](C#N)[C@@H]4C3)c(F)c2)C(=O)O1 [Example 46, N-[5(S)-3-[4-[(1α,5α,6α)-6-Cyano-3-azabicyclo[3.1.0]hexan-3-yl]-3-fluorophenyl]-2-oxooxazolidin-5-ylmethyl]acetamide]	–	0.25 (≈ 0.698 µM)	1 (≈ 2.79 µM)	0.25 (≈ 0.698 µM)	0.5 (≈ 1.4 µM)	0.25 (≈ 0.698 µM)	0.5 (≈ 1.4 µM)	0.25 (≈ 0.698 µM)	–	2 (≈ 5.58 µM)
CC(=O)NC[C@H]1CN(c2ccc(N3CCOCC3)c(F)c2)C(=O)O1 [Linezolid, reference compound]	–	1 (≈ 2.96 µM)	16 (≈ 47.4 µM)	1 (≈ 2.96 µM)	2 (≈ 5.93 µM)	1 (≈ 2.96 µM)	2 (≈ 5.93 µM)	1 (≈ 2.96 µM)	8 (≈ 23.7 µM)	4 (≈ 11.9 µM)
